What all share (test): Glasshouse assay for herbicidal activity (pre- and post-emergence), percentage phytotoxicity
Common to all, as to assay type: in vivo

The test system of one assay is Avena fatua (AVEFA). The following applies: Avena fatua. The method in brief:
(§1)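 Visually rated damage, 0–100%. PRE spray 1 d after sowing, scored 20 DAA; POST spray ~12 d, scored 15 DAA. Glasshouse at 65% humidity, 16 h day.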

The subject of assay [1] is Echinochloa crus-galli (ECHCG). The following applies: Echinochloa crus-galli. The method in brief: as §1
A further assay concerns Lolium perenne (LOLPE). Conditions: Lolium perenne. The method in brief: as §1
Assay [2] has as its system Alopecurus myosuroides (ALOMY). The following applies: Alopecurus myosuroides. The method in brief: as §1
Where [3] appears, read: post-emergence, 360 h, 250 g/ha, post-emergence, 15 DAA, visual assessment (100%=total damage, 0%=no damage), read-out: Post-emergence herbicidal activity (percentage phytotoxicity) AVEFA POST.
[4] abbreviates: pre-emergence, 480 h, 250 g/ha, pre-emergence, 20 DAA, visual assessment (100%=total damage, 0%=no damage), read-out: Pre-emergence herbicidal activity (percentage phytotoxicity) AVEFA PRE.
[5] abbreviates: post-emergence, 360 h, 250 g/ha, post-emergence, 15 DAA, visual assessment (100%=total damage, 0%=no damage), read-out: Post-emergence herbicidal activity (percentage phytotoxicity) ECHCG POST.
Where [6] appears, read: pre-emergence, 480 h, 250 g/ha, pre-emergence, 20 DAA, visual assessment (100%=total damage, 0%=no damage), read-out: Pre-emergence herbicidal activity (percentage phytotoxicity) ECHCG PRE.
[7] abbreviates: post-emergence, 360 h, 250 g/ha, post-emergence, 15 DAA, visual assessment (100%=total damage, 0%=no damage), read-out: Post-emergence herbicidal activity (percentage phytotoxicity) LOLPE POST.
Setting [8] is: pre-emergence, 480 h, 250 g/ha, pre-emergence, 20 DAA, visual assessment (100%=total damage, 0%=no damage), read-out: Pre-emergence herbicidal activity (percentage phytotoxicity) LOLPE PRE.
[9] abbreviates: post-emergence, 360 h, 250 g/ha, post-emergence, 15 DAA, visual assessment (100%=total damage, 0%=no damage), read-out: Post-emergence herbicidal activity (percentage phytotoxicity) ALOMY POST.
Setting [10] is: pre-emergence, 480 h, 250 g/ha, pre-emergence, 20 DAA, visual assessment (100%=total damage, 0%=no damage), read-out: Pre-emergence herbicidal activity (percentage phytotoxicity) ALOMY PRE.
Setting [11] is: post-emergence, 360 h, POST-emergence, rate 250 g/ha, visual score 15 DAA (100%=total damage, 0%=no damage), read-out: Post-emergence herbicidal activity (percentage phytotoxicity) AVEFA POST.
[12] abbreviates: pre-emergence, 480 h, PRE-emergence, rate 250 g/ha, visual score 20 DAA (100%=total damage, 0%=no damage), read-out: Pre-emergence herbicidal activity (percentage phytotoxicity) AVEFA PRE.
Setting [13] is: post-emergence, 360 h, POST-emergence, rate 250 g/ha, visual score 15 DAA (100%=total damage, 0%=no damage), read-out: Post-emergence herbicidal activity (percentage phytotoxicity) ECHCG POST.
Setting [14] is: pre-emergence, 480 h, PRE-emergence, rate 250 g/ha, visual score 20 DAA (100%=total damage, 0%=no damage), read-out: Pre-emergence herbicidal activity (percentage phytotoxicity) ECHCG PRE.
[15] abbreviates: post-emergence, 360 h, POST-emergence, rate 250 g/ha, visual score 15 DAA (100%=total damage, 0%=no damage), read-out: Post-emergence herbicidal activity (percentage phytotoxicity) LOLPE POST.
[16] abbreviates: pre-emergence, 480 h, PRE-emergence, rate 250 g/ha, visual score 20 DAA (100%=total damage, 0%=no damage), read-out: Pre-emergence herbicidal activity (percentage phytotoxicity) LOLPE PRE.
The mark [17] stands for this setting: post-emergence, 360 h, POST-emergence, rate 250 g/ha, visual score 15 DAA (100%=total damage, 0%=no damage), read-out: Post-emergence herbicidal activity (percentage phytotoxicity) ALOMY POST.
Where [18] appears, read: pre-emergence, 480 h, PRE-emergence, rate 250 g/ha, visual score 20 DAA (100%=total damage, 0%=no damage), read-out: Pre-emergence herbicidal activity (percentage phytotoxicity) ALOMY PRE.

Like-named read-outs stand apart in the source and are kept apart here.

This passage reports pest or weed control results from patent US10206394B2, “Herbicidal compounds” (Syngenta Participations AG, priority 2014, dated 2019).

For `COc1ccc(C(=O)OC2=C(c3c(C)cc(-c4ncc(Cl)cn4)cc3C)C(=O)C(CC(=O)NC(C)(C)C)C2)cc1` (stereo not shown) [Compound P1, [4-[2-(tert-butylamino)-2-oxo-ethyl]-2-[4-(5-chloropyrimidin-2-yl)-2,6-dimethyl-phenyl]-3-oxo-cyclopenten-1-yl] 4-methoxybenzoate], the pest or weed control at 250 g/ha stood at 100% in the assay on Avena fatua (AVEFA) (post-emergence, 360 h, post-emergence, 250 g/ha, 15 DAA, visual score (100%=total damage; 0%=no damage), read-out: AVEFA POST herbicidal activity (percentage phytotoxicity)); 100% in the assay with Avena fatua (AVEFA) (pre-emergence, 480 h, pre-emergence, 250 g/ha, 20 DAA, visual score (100%=total damage; 0%=no damage), read-out: AVEFA PRE herbicidal activity (percentage phytotoxicity)); 100% in assay [1] (post-emergence, 360 h, post-emergence, 250 g/ha, 15 DAA, visual score (100%=total damage; 0%=no damage), read-out: ECHCG POST herbicidal activity (percentage phytotoxicity)); 100% in assay [1] (pre-emergence, 480 h, pre-emergence, 250 g/ha, 20 DAA, visual score (100%=total damage; 0%=no damage), read-out: ECHCG PRE herbicidal activity (percentage phytotoxicity)); 100% in the assay on Lolium perenne (LOLPE) (post-emergence, 360 h, post-emergence, 250 g/ha, 15 DAA, visual score (100%=total damage; 0%=no damage), read-out: LOLPE POST herbicidal activity (percentage phytotoxicity)); 100% in the assay on Lolium perenne (LOLPE) (pre-emergence, 480 h, pre-emergence, 250 g/ha, 20 DAA, visual score (100%=total damage; 0%=no damage), read-out: LOLPE PRE herbicidal activity (percentage phytotoxicity)). The pest or weed control at 250 g/ha in assay [2] (post-emergence, 360 h, post-emergence, 250 g/ha, 15 DAA, visual score (100%=total damage; 0%=no damage), read-out: ALOMY POST herbicidal activity (percentage phytotoxicity)) worked out at 100%; in assay [2] (pre-emergence, 480 h, pre-emergence, 250 g/ha, 20 DAA, visual score (100%=total damage; 0%=no damage), read-out: ALOMY PRE herbicidal activity (percentage phytotoxicity)) it was 100%.

Consider `Cc1cc(-n2cc(Cl)cn2)cc(C)c1C1C(=O)CC(CC(=O)NCC(C)C)C1=O` (stereo not shown) [Compound A72], for which the pest or weed control at 250 g/ha is 90% in the assay on Avena fatua (AVEFA) (post-emergence, 360 h, Rate 250 g/ha, post-emergence, assessed visually 15 DAA, 100%=total damage, 0%=no damage, read-out: Post-emergence herbicidal activity (percentage phytotoxicity) AVEFA POST); 90% with Avena fatua (AVEFA) (pre-emergence, 480 h, Rate 250 g/ha, pre-emergence, assessed visually 20 DAA, 100%=total damage, 0%=no damage, read-out: Pre-emergence herbicidal activity (percentage phytotoxicity) AVEFA PRE); 90% in assay [1] (post-emergence, 360 h, Rate 250 g/ha, post-emergence, assessed visually 15 DAA, 100%=total damage, 0%=no damage, read-out: Post-emergence herbicidal activity (percentage phytotoxicity) ECHCG POST); 100% in assay [1] (pre-emergence, 480 h, Rate 250 g/ha, pre-emergence, assessed visually 20 DAA, 100%=total damage, 0%=no damage, read-out: Pre-emergence herbicidal activity (percentage phytotoxicity) ECHCG PRE); 80% with Lolium perenne (LOLPE) (post-emergence, 360 h, Rate 250 g/ha, post-emergence, assessed visually 15 DAA, 100%=total damage, 0%=no damage, read-out: Post-emergence herbicidal activity (percentage phytotoxicity) LOLPE POST); 90% in the assay with Lolium perenne (LOLPE) (pre-emergence, 480 h, Rate 250 g/ha, pre-emergence, assessed visually 20 DAA, 100%=total damage, 0%=no damage, read-out: Pre-emergence herbicidal activity (percentage phytotoxicity) LOLPE PRE). Moreover, the pest or weed control at 250 g/ha in assay [2] (post-emergence, 360 h, Rate 250 g/ha, post-emergence, assessed visually 15 DAA, 100%=total damage, 0%=no damage, read-out: Post-emergence herbicidal activity (percentage phytotoxicity) ALOMY POST) amounted to 90%; in assay [2] (pre-emergence, 480 h, Rate 250 g/ha, pre-emergence, assessed visually 20 DAA, 100%=total damage, 0%=no damage, read-out: Pre-emergence herbicidal activity (percentage phytotoxicity) ALOMY PRE), 90%.

As to `Cc1cc(-c2ccc(C#N)cn2)cc(C)c1C1C(=O)CC(CC(=O)NC(C)(C)C)C1=O` (stereo not shown) [Compound B75], the pest or weed control at 250 g/ha in the assay on Avena fatua (AVEFA) (setting [3]) was determined as 100%; in the assay with Avena fatua (AVEFA) (setting [4]) it was 90%; in assay [1] (setting [5]) it was 100%; in assay [1] (setting [6]), 100%; in the assay with Lolium perenne (LOLPE) (setting [7]), 100%; in the assay with Lolium perenne (LOLPE) (setting [8]) it was 90%. Further, the pest or weed control at 250 g/ha in assay [2] (setting [9]) and in assay [2] (setting [10]) was 100% in each case.

For `C/C=C/CNC(=O)CC1CC(=O)C(c2c(C)cc(-c3ncc(Cl)cc3F)cc2C)C1=O` (stereo not shown) [Compound B161], the pest or weed control at 250 g/ha amounted to 100% with Avena fatua (AVEFA) (setting [3]); 80% with Avena fatua (AVEFA) (setting [4]); 100% in assay [1] (setting [5]); 90% in assay [1] (setting [6]); 100% in the assay on Lolium perenne (LOLPE) (setting [7]); 100% with Lolium perenne (LOLPE) (setting [8]). The pest or weed control at 250 g/ha in assay [2] (setting [9]) stood at 100%; in assay [2] (setting [10]), 90%.

Consider `C=CCNC(=O)CC1CC(=O)C(c2c(C)cc(Br)cc2C)C1=O` (stereo not shown) [Compound B117], for which the pest or weed control at 250 g/ha was 70% in the assay on Avena fatua (AVEFA) (setting [3]); 20% in the assay on Avena fatua (AVEFA) (setting [4]); 70% in assay [1] (setting [5]); 70% in assay [1] (setting [6]); 70% with Lolium perenne (LOLPE) (setting [7]); 70% in the assay on Lolium perenne (LOLPE) (setting [8]). The pest or weed control at 250 g/ha is 80% in assay [2] (setting [9]) and 70% in assay [2] (setting [10]).

On to `CNC(=O)CC1CC(=O)C(c2c(C)cc(-c3ncc(F)cc3F)cc2C)C1=O` (stereo not shown) [Compound B269], for which the pest or weed control at 250 g/ha (with Avena fatua (AVEFA) (setting [11]); in the assay with Avena fatua (AVEFA) (setting [12]); in assay [1] (setting [13]); in assay [1] (setting [14]); in the assay with Lolium perenne (LOLPE) (setting [15]); in the assay on Lolium perenne (LOLPE) (setting [16])) was 100% in each case. In addition, the pest or weed control at 250 g/ha in assay [2] (setting [17]) and in assay [2] (setting [18]) was 100% each time.

On to `CCc1cc(C)cc(C)c1C1C(=O)CC(CC(=O)NC(C)C)C1=O` (stereo not shown) [Compound B255], for which the pest or weed control at 250 g/ha in the assay on Avena fatua (AVEFA) (setting [11]) is 100%; with Avena fatua (AVEFA) (setting [12]), 80%; in assay [1] (setting [13]), 100%; in assay [1] (setting [14]) it was 100%; with Lolium perenne (LOLPE) (setting [15]), 100%; in the assay with Lolium perenne (LOLPE) (setting [16]), 100%. In addition, the pest or weed control at 250 g/ha in assay [2] (setting [17]) and in assay [2] (setting [18]) was 100% each time.

Regarding `C=C(C)CNC(=O)CC1CC(=O)C(c2c(C)cc(OCC(F)(F)F)cc2C)C1=O` (stereo not shown) [Compound B147], the pest or weed control at 250 g/ha stood at 90% in the assay on Avena fatua (AVEFA) (setting [3]); 50% in the assay on Avena fatua (AVEFA) (setting [4]); 90% in assay [1] (setting [5]); 100% in assay [1] (setting [6]); 60% with Lolium perenne (LOLPE) (setting [7]); 90% in the assay with Lolium perenne (LOLPE) (setting [8]). The figures for the pest or weed control at 250 g/ha in assay [2] (setting [9]) and in assay [2] (setting [10]) were 80% and 90%, respectively.
